Test results taken from US20210261495A1, “COMPOSITIONS AND METHODS OF USING ITACONIC ACID DERIVATIVES” (ERGON PHARMACEUTICALS, LLC, priority 2018, published 2021).

What was measured:
[1] = tested on: hCD8^+ T cells; assay: hCD8+ T cell differentiation into effector T cells: GZMB release, ELISA; assay type: cell-based, human; conditions: for Granzyme B (% Control): 72 hrs, normalized per number of cells
Procedure: Differentiation of T Cells. The ability of T cells to differentiate from a naïve to an effector state was assessed by measuring the levels of IFNγ or GZMB synthesis following activation of the cells using a cocktail of anti-CD2/anti-CD3/anti-CD28 antibodies. Expression of IFNγ, GZMB, and other effector cytokines was measured by determining their concentration in the conditioned media 24-72 hrs after initiation of activation or by estimating the % cells expressing these cytokines using fluorescence-activated cell sorting (FACS).
Augmentation of hCD8^+ T Cell Differentiation into Effector T Cells. Naïve CD8+ T cells were isolated from human buffy coats using magnetic separation and the appropriate kit from Miltenyi Biotec. Cells were then activated using a cocktail of anti-CD2/anti-CD3/anti-CD28 antibodies. Differentiation of the cells into effector T cells was assessed by determining the levels of IFNγ and GZMB released into the media at 24 and 72 hrs, respectively using appropriate ELISA kits. Cytokine concentrations were normalized per number of cells present and expressed as % Untreated Control.

[2] = tested on: M-MDSCs; assay: Tumor immunophenotyping of CT26 tumors (MDSCs); assay type: in vivo, mice; conditions: 0.2 mg/kg ip, CT26 tumors 250-1500 mm^3
Procedure: Tumor Immunophenotyping. To determine the effect of a therapeutic agent on a specific immune cell type in vivo, syngeneic tumor models were employed. In a typical experiment, tumors were allowed to grow to a certain size and were then treated for a specific number of days prior to termination. At the end of the experiment, animals were euthanized, tumors were excised and single cell suspensions were immediately obtained through dissociation of tumor tissues with collagenase. Tumor cell suspensions were then subject to FACS analysis in order to determine the presence of various biomarkers.
Tumor Immunophenotyping of CT26 Tumors. CT26-tumor bearing mice treated with either vehicle control or 0.2 mg/kg Compound (6) (ip, twice a day) were euthanized when the tumors had reached a size of 250-1500 mm^3. Tumors were excised and single cell suspensions were obtained using the tumor dissociation kit from Miltenyi Biotec per manufacturer's instructions. The suspensions were analyzed for the presence of MDSCs.

[3] = tested on: C6-IRG1-9 rat glioma cells; assay: C6-IRG1-9 rat glioma cell proliferation, CyQuant; assay type: cell-based; conditions: various concentrations, 48 hrs
Procedure: Tumor Cell Proliferation Assay. This assay was used to assess the anti-tumor properties of a therapeutic agent in vitro. In a typical proliferation assay, cells were cultured to near confluency in the appropriate media. Subsequently, the cells were trypsinized and plated onto 96-well plates at 2,000 or 5,000 cell per well. The cells were cultured for 48 to 96 hours in the presence or absence of the therapeutic agent. Cell proliferation was then determined using spectrophotometry (MTT assay, BrdU assay) or fluorimetry (Cyquant assay).
Inhibition of C6-IRG1-9 Rat Glioma cell proliferation. C6-IRG1-9 cells are rat C6 glioma cells that have been transfected to overexpress IRG1. Overexpression of IRG1 is maintained by culturing the cells in DMEM media containing 0.55 μg/mL puromycin. For the proliferation assays, the cells were plated onto a 96-well plate at a density of 2,000 cells/well. The cells were allowed to adhere overnight; they were subsequently treated with various concentrations of compounds of Formula (2) for 48 hrs. At the end of the incubation period, the number of cells is assessed using the CyQuant Cell Proliferation kit (Thermo Fisher) according to the manufacturer's instructions. The results, shown in FIG. 3, indicate that compounds of Formula (2) are able to reduce or abrogate growth of C6-IRG1-9 cells. In FIG. 3, cell proliferation is expressed as % Untreated Control, defined as: […]
where t is the number of cells present in a treated well at the end of the incubation period, c is the number of cells present in an untreated well at the end of the incubation period, and s is the initial number of cells in the wells prior to initiation of treatment.

[4] = tested on: CT26 mouse colorectal tumors; assay: Survival and tumor growth of CT26 tumor-bearing mice; assay type: in vivo, C57BL/6 mice
Procedure: In Vivo Anti-Tumor Effect. The anticancer properties of the therapeutic agent were evaluated in vivo by determining the ability of the agent to suppress tumor growth and/or increase survival of tumor-bearing animals. In a typical experiment, 0.1-1×10^6 tumor cells, suspended in PBS containing 20% Matrigel, were injected subcutaneously in the right flank of each mouse. When the tumors became palpable, the animals were randomized into different groups and treatment began. In vivo tests routinely included a vehicle control group and different doses and/or routes of administration of the therapeutic agent. Tumor growth was assessed using calipers and the following formula:
Tumor Volume=length×width×width×½
The Kaplan-Meier analysis was used to estimate the survival probability of the tumor-bearing animals.
C57BL/6 mice were injected subcutaneously in the right flank with 1×10^5 CT26 mouse colorectal tumor cells, suspended in PBS containing 20% Matrigel. The tumors were allowed to grow to −100 mm^3. The mice were randomized into two groups (n=6 animals/group): one group received vehicle control and the other group was treated with i.p. injections of 0.2 mg/kg Compound (6) twice a week (Tuesday-Thursday). The experiment continued for 27 days, at which point the mortality rate of control animals was 80%. […] The experiment was repeated (FIG. 6B). In FIG. 6B, treated animals received oral administrations of 3 mg/kg Compound (6) twice a day.

[5] = tested on: TNFα; assay: In vitro inflammation assay: TNFα secretion from LPS-stimulated hMDMs, ELISA; assay type: cell-based, human; conditions: concentrations ≥500 μM, 1 μg/mL LPS, 6 h
Procedure: In Vitro Inflammation Assay. In vitro inflammation was assessed by measuring the concentration of TNFα in the conditioned media of macrophages stimulated with 0.1-1 μg/mL LPS in the presence or absence of the compound of interest after 4-6 hrs.
Inhibition of TNFα secretion. hMDMs were pretreated with various concentrations of Compound (6) for 15 min and then stimulated with 1 μg/mL LPS. Conditioned media were collected 6 h later and TNFα concentrations were determined by ELISA.

[6] = tested on: hCD8^+ T cells; assay: Proliferation of TCR-activated hCD8+ T cells, CFSE dilution; assay type: cell-based, human; conditions: 10 nM, compared to untreated TCR-activated control cells
Procedure: Augmentation of CD8^+ T Cell Proliferation. Naïve hCD8^+ T cells were isolated from commercially available buffy coats using magnetic separation and the appropriate kit from Miltenyi Biotec. Cells were then subject to TCR activation using a cocktail of anti-CD2/anti-CD^3/anti-CD28 antibodies. Untreated control and treated cells were included in the experiment. The cells were cultured for 72 hrs in TexMACS media (Miltenyi Biotec) without IL-2 and for an additional 48 hrs in TexMACS media containing 20U human IL-2/mL. Cell division was assessed by flow cytometry using the carboxyfluorescein succimidyl ester (CFSE) dilution method.

[7] = 3 mg/kg oral twice a day, end of experiment

With `O=C(O)/C(=C\c1ccc(F)cc1)C(Cc1ccccc1)C(=O)O` (centres unmarked) [Compound (6), 2-benzyl-3-[(4-flurophenyl)methylidene]butanedioic acid] the “Granzyme B (% Control)” value ([1]; 0.1 nM) was 117 % Control, the “Granzyme B (% Control)” value ([1]; 1 nM) was 165 % Control and the “Granzyme B (% Control)” value ([1]; 10 nM) was 504 % Control. The “Granzyme B (% Control)” value ([1]; 100 nM) was 276 % Control, the “Granzyme B (% Control)” value ([1]; 10 μM) was 360 % Control and the “production of GZMB” value ([1]; low concentrations) was “increase production”. The “intratumoral frequency of M-MDSCs” value [2] was “significantly reduces”, the “proliferation of C6-IRG1-9 rat glioma cells” value [3] was “inhibition of proliferation” and the “survival (Kaplan-Meier)” value ([4]; 0.2 mg/kg i.p. twice a week, 27 days, vs vehicle control) was “survival advantage”. The “animals with complete tumor regression” value [4, 7] was 1/6, the “mice with slower tumor growth” value [4, 7] was 5/6 and the “survival (Kaplan-Meier)” value ([4]; 3 mg/kg orally twice a day) was “increased survival”. The “secretion of TNFα” value [5] was “reduced secretion” and the “proliferation of TCR-activated hCD8+ T cells” value [6] was “increased proliferation”.
